Source: ChEMBL document CHEMBL1201862, “PubChem BioAssay data set” (2004)
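Compound exposure: 48 hours, 5 concentrations, 96-well plates. GI50: concentration for 50% inhibition of growth.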 Activity calls are given as the source filed them. No stated cut-off is given here; in the data, active = GI50 up to about 1.1 µM and inactive = higher.

Legend:
Test in all cases: growth of human tumour cells (NCI), 48 h
[1] = tested on: HOP-92
[2] = tested on: NCI-H23
[3] = tested on: CAKI-1
[4] = tested on: KM12
[5] = tested on: MDA-MB-435
[6] = tested on: MOLT-4
[7] = tested on: NCI-H522
[8] = tested on: DU-145
[9] = tested on: A549
[10] = tested on: OVCAR-4
[11] = tested on: OVCAR-3
[12] = tested on: SW-620
[13] = tested on: SF-539
[14] = tested on: SK-OV-3
[15] = tested on: CCRF-CEM
[16] = tested on: HCT-116
[17] = tested on: BT-549
[18] = tested on: UACC-257
[19] = tested on: Hs-578T
[20] = tested on: HOP-62
[21] = tested on: UO-31
[22] = tested on: IGROV-1
[23] = tested on: MDA-MB-231
[24] = tested on: RPMI-8226
[25] = tested on: HCT-15
[26] = tested on: M14
[27] = tested on: SNB-75
[28] = tested on: EKVX
[29] = tested on: OVCAR-5
[30] = tested on: K562
[31] = tested on: SK-MEL-28
[32] = tested on: U-251
[33] = tested on: 786-0
[34] = tested on: LOX IMVI
[35] = tested on: NCI/ADR-RES
[36] = tested on: MCF7
[37] = tested on: UACC-62
[38] = tested on: SK-MEL-2
[39] = tested on: HT-29
[40] = tested on: HCC 2998
[41] = tested on: NCI-H460
[42] = tested on: SNB-19
[43] = tested on: MDA-N
[44] = tested on: SN12C
[45] = tested on: OVCAR-8
[46] = tested on: SF-268
[47] = tested on: TK-10
[48] = tested on: SF-295
[49] = tested on: COLO 205
[50] = tested on: NCI-H226
[51] = tested on: ACHN
[52] = tested on: PC-3
[53] = tested on: HL-60
[54] = tested on: Malme-3M
[55] = tested on: SR
[56] = tested on: SK-MEL-5
[57] = tested on: RXF 393
[58] = tested on: A498
[59] = tested on: T47D

For `O=CN1CCN(c2ccc3ccc(O)nc3n2)CC1`, the GI50 [1] was > 100 µM (inactive), the GI50 [2] was > 100 µM (inactive) and the GI50 [3] was > 100 µM (inactive). For the same compound, the GI50 [4] was > 100 µM (inactive), the GI50 [5] was > 100 µM (inactive) and the GI50 [6] was > 100 µM (inactive). For the same compound, the GI50 [7] was 51.8 µM (inactive), the GI50 [8] was > 100 µM (inactive) and the GI50 [9] was > 100 µM (inactive). For the same compound, the GI50 [10] was > 100 µM (inactive), the GI50 [11] was > 100 µM (inactive) and the GI50 [12] was > 100 µM (inactive). The GI50 [13] was > 100 µM (inactive), the GI50 [14] was > 100 µM (inactive) and the GI50 [15] was > 100 µM (inactive). For the same compound, the GI50 [16] was > 100 µM (inactive), the GI50 [17] was > 100 µM (inactive) and the GI50 [18] was > 100 µM (inactive). The GI50 [19] was > 100 µM (inactive), the GI50 [20] was > 100 µM (inactive) and the GI50 [21] was > 100 µM (inactive). The GI50 [22] was > 100 µM (inactive), the GI50 [23] was > 100 µM (inactive) and the GI50 [24] was > 100 µM (inactive). For the same compound, the GI50 [25] was over 100 µM, the GI50 [26] was > 100 µM (inactive) and the GI50 [27] was > 100 µM (inactive). For the same compound, the GI50 [28] was > 100 µM (inactive), the GI50 [29] was > 100 µM (inactive) and the GI50 [30] was > 100 µM (inactive). The GI50 [31] was > 100 µM (inactive), the GI50 [32] was > 100 µM (inactive) and the GI50 [33] was > 100 µM (inactive). For the same compound, the GI50 [34] was > 100 µM (inactive), the GI50 [35] was > 100 µM (inactive) and the GI50 [36] was > 100 µM (inactive). For the same compound, the GI50 [37] was > 100 µM (inactive), the GI50 [38] was > 100 µM (inactive) and the GI50 [39] was > 100 µM (inactive). The GI50 [40] was > 100 µM (inactive), the GI50 [41] was > 100 µM (inactive) and the GI50 [42] was > 100 µM (inactive). The GI50 [43] was > 100 µM (inactive), the GI50 [44] was > 100 µM (inactive) and the GI50 [45] was > 100 µM (inactive). For the same compound, the GI50 [46] was 69.8 µM (inactive), the GI50 [47] was > 100 µM (inactive) and the GI50 [48] was > 100 µM (inactive). For the same compound, the GI50 [49] was > 100 µM (inactive), the GI50 [50] was > 100 µM (inactive) and the GI50 [51] was > 100 µM (inactive). For the same compound, the GI50 [52] was > 100 µM (inactive), the GI50 [53] was > 100 µM (inactive) and the GI50 [54] was > 100 µM (inactive). The GI50 [55] was > 100 µM (inactive).
In the case of `O=C(O/C=C\OC1CCCC1(c1ccccc1)c1ccccc1)c1ccccc1` (configuration not stated), the GI50 [1] is reported as 2.07 µM (inactive), the GI50 [2] is reported as 2.19 µM (inactive) and the GI50 [56] is reported as 10.8 µM (inactive). For the same compound, the GI50 [3] was > 46.1 µM (inactive), the GI50 [4] was 14.9 µM (inactive) and the GI50 [6] was 4.29 µM (inactive). The GI50 [7] was 19 µM (inactive), the GI50 [8] was 3.02 µM (inactive) and the GI50 [9] was 21.4 µM (inactive). For the same compound, the GI50 [10] was 3.15 µM (inactive), the GI50 [11] was 9.2 µM (inactive) and the GI50 [12] was 2.7 µM (inactive). The GI50 [13] was 3.66 µM (inactive), the GI50 [14] was 16.5 µM (inactive) and the GI50 [57] was 2.49 µM (inactive). For the same compound, the GI50 [15] was 2.04 µM (inactive), the GI50 [16] was 2.51 µM (inactive) and the GI50 [17] was 2.12 µM (inactive). For the same compound, the GI50 [18] was 15.8 µM (inactive), the GI50 [19] was 7.05 µM (inactive) and the GI50 [20] was 18.8 µM (inactive). For the same compound, the GI50 [21] was 1.87 µM (inactive), the GI50 [22] was 2.6 µM (inactive) and the GI50 [23] was 2.51 µM (inactive). For the same compound, the GI50 [24] was 2.61 µM (inactive), the GI50 [25] was 2.23 µM and the GI50 [26] was 2.79 µM (inactive). The GI50 [27] was 3.83 µM (inactive), the GI50 [28] was 17.5 µM (inactive) and the GI50 [58] was 23.1 µM (inactive). For the same compound, the GI50 [29] was 16.8 µM (inactive), the GI50 [30] was 4.19 µM (inactive) and the GI50 [31] was 5.71 µM (inactive). For the same compound, the GI50 [59] was 1.61 µM (inactive), the GI50 [32] was 3.66 µM (inactive) and the GI50 [33] was 4.03 µM (inactive). For the same compound, the GI50 [34] was 1.67 µM (inactive), the GI50 [35] was 2.88 µM (inactive) and the GI50 [36] was 2.6 µM (inactive). The GI50 [37] was 6.28 µM (inactive), the GI50 [38] was 3.31 µM (inactive) and the GI50 [39] was 3.44 µM (inactive). For the same compound, the GI50 [40] was 18.7 µM (inactive), the GI50 [41] was 25.9 µM (inactive) and the GI50 [42] was 14.8 µM (inactive). The GI50 [43] was 3.47 µM (inactive), the GI50 [44] was 3.95 µM (inactive) and the GI50 [45] was 3 µM (inactive). The GI50 [46] was 4.05 µM (inactive), the GI50 [47] was 5.01 µM (inactive) and the GI50 [48] was 19.2 µM (inactive). The GI50 [49] was 15.6 µM (inactive), the GI50 [50] was 19.8 µM (inactive) and the GI50 [51] was 4.1 µM (inactive). The GI50 [52] was 3.34 µM (inactive), the GI50 [53] was 1.84 µM (inactive) and the GI50 [55] was 2.17 µM (inactive).
